Changes are numbered by the printed parent chain.
Legend:
[1] = molecular target: T1, purified mutant MGL (mut-MGLL 11-313 L179S L186S) (Homo sapiens, UniProt Q99685, L169S/L176S); experiment: MGL enzyme activity assay (4MU-B cleavage), mutant MGL; format: biochemical; conditions: mutant MGL 5 nM, 4MU-B 10 μM, 37° C.; read-out: MGL mutant inh IC50
T1 construct: purified mutant MGL (mut-MGLL 11-313 L179S L186S)
T1 sequence (Q99685 1-303 L169S/L176S): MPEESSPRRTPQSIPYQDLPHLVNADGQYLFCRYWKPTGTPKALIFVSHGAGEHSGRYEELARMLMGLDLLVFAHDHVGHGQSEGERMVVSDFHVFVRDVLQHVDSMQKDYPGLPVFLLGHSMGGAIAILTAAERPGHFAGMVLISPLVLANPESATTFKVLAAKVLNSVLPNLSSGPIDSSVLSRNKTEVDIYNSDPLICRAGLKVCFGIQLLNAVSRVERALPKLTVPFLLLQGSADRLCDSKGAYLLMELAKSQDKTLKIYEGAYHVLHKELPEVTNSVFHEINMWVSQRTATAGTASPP
How it was run: (§1)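 Enzyme in 20 mM PIPES pH 7.0, 150 mM NaCl, 0.001% Tween 20 with 4MU-B at 10 μM final and MGL at 5 nM final; compounds 17 to 0.0003 μM final, enzyme added last. Fluorescence (ex 335/em 440 nm) followed at 37° C for 5 min; IC50 from fit of fractional activity versus inhibitor concentration.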

[2] = molecular target: T2, purified wild type MGL (wt-MGLL 6H-11-313) (Homo sapiens, UniProt Q99685); experiment: MGL enzyme activity assay (4MU-B cleavage), wild type MGL; format: biochemical; conditions: wild type MGL 5 nM, 4MU-B 10 μM, 37° C.; read-out: MGL wild type inh IC50
T2 construct: purified wild type MGL (wt-MGLL 6H-11-313)
T2 sequence (Q99685 1-303): T1 sequence (Q99685 1-303 L169S/L176S) with S169L, S176L
How it was run: as §1

[3] = tested on: MGL (rat brain homogenate); experiment: 2-AG accumulation assay in rat brain homogenate; format: biochemical; conditions: compound 1 μM, percent of vehicle 2-AG accumulation
How it was run: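 Rat brain homogenate was incubated with compound for 15 min at 37° C., after which CaCl2 was added to a final concentration of 10 mM and incubation continued for 15 min at 37° C. in 5 mL total. Reactions were stopped with 6 mL of 2:1 chloroform/methanol, and 2-AG accumulated in the organic phase was quantified by HPLC/MS.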

[4] = tested on: CFA-induced paw radiant heat hypersensitivity; experiment: CFA-induced paw radiant heat hypersensitivity; format: in vivo; conditions: rat, 30 mg/kg p.o., 20% HPβCD, last time point 300 min; for inhibition in vivo at 30 mg/kg: po, 5 h, group mean values, read-out: Method 1: peak % reversal; for Method 2: peak % reversal: individual animal values
Method: Each rat was placed in a test chamber on a warm glass surface and allowed to acclimate for approximately 10 min. A radiant thermal stimulus (beam of light) was focused through the glass onto the plantar surface of each hind paw in turn. The thermal stimulus was automatically shut off by a photoelectric relay when the paw was moved or when the cut-off time was reached (20 sec for radiant heat at ˜5 amps). An initial (baseline) response latency to the thermal stimulus was recorded for each animal prior to the injection of complete Freund's adjuvant (CFA). Twenty-four hours following intraplantar CFA injection, the response latency of the animal to the thermal stimulus was re-evaluated and compared to the animal's baseline response time. […] Immediately following the post-CFA latency assessment, the indicated test compound or vehicle was administered orally. Post-compound treatment withdrawal latency was assessed at fixed time intervals, typically 30, 60, 120, 180, and 300 min. • The percent reversal (% R) of hypersensitivity was calculated in one of two different ways: 1) using group mean values or 2) using individual animal values. More specifically: • Method 1. For all compounds, the % R of hypersensitivity was calculated using the mean value for groups of animals at each time point according to the following formula: % reversal=[(group treatment response−group CFA response)/(group baseline response−group CFA response)]×100 • Results are given for the maximum % reversal observed for each compound at any time point tested. • Method 2. For some compounds, the % R of hypersensitivity was calculated separately for each animal according to the following formula: % reversal=[(individual treatment response−individual CFA response)/(individual baseline response−individual CFA response)]×100. • Results are given as a mean of the maximum % reversal values calculated for each individual animal.

[5] = tested on: murine model of acute inflammation; conditions: Comelli et al., Brit J Pharmacol, 2007; cited from earlier work

## O=C(c1ccc(-c2cccc(C(F)(F)F)c2)cc1)N1CC(N[C@H]2CN(C(=O)c3ccccc3)CC2F)C1 (single isomer, unassigned) [Cpd 63]
[1]
  IC50: 6.3 nM
[2]
  IC50: 66.6 nM
[3]
  Rat Brain 2AG % VehCntrl (%) @1 μM: 696%
[4]
  inhibition in vivo at 30 mg/kg: -8.2%

## O=C(c1ccc(-c2cccc(C(F)(F)F)c2)cc1)N1CC(N[C@H]2CCN(C(=O)c3ccccc3)C2)C1 [Cpd 16, (3S)-1-(Phenylcarbonyl)-N-(1-{[3′-(trifluoromethyl)biphenyl-4-yl]carbonyl}azetidin-3-yl)pyrrolidin-3-amine]
[1]
  IC50: < 5 nM
[2]
  IC50: 16.7 nM
[3]
  Rat Brain 2AG % VehCntrl (%) @1 μM: 220%
[4]
  inhibition in vivo at 30 mg/kg: 78%
  Method 2: peak % reversal: 87.7%

## Cc1c(C(=O)N2CC(N[C@H]3CCN(C(=O)c4ccccc4)C3)C2)sc2ccc(-c3ccc(C(F)(F)F)cc3)cc12 [Cpd 40, (3S)-N-[1-({3-Methyl-5-[4-(trifluoromethyl)phenyl]-1-benzothiophen-2-yl}carbonyl)azetidin-3-yl]-1-(phenylcarbonyl)pyrrolidin-3-amine]
[1]
  IC50: 18.9 nM
[2]
  IC50: 16 nM
[3]
  Rat Brain 2AG % VehCntrl (%) @1 μM: 1145%
[4]
  inhibition in vivo at 30 mg/kg: 15.9%
  Method 2: peak % reversal: 17.3%

## O=C(c1ccc2c(-c3cccc(C(F)(F)F)c3)c[nH]c2c1)N1CC(N[C@H]2CCN(C(=O)c3ccccc3)C2)C1 [Cpd 103, (3S)-1-(Phenylcarbonyl)-N-[1-({3-[3-(trifluoromethyl)phenyl]-1H-indol-6-yl}carbonyl)azetidin-3-yl]pyrrolidin-3-amine]
[2]
  IC50: 15 nM
[3]
  Rat Brain 2AG % VehCntrl (%) @1 μM: 332%
[4]
  inhibition in vivo at 30 mg/kg: 28%

## O=C(c1ccc2c(-c3cccc(C(F)(F)F)c3)c[nH]c2c1)N1CC(N[C@H]2CCN(C(=O)c3nccs3)C2)C1 [Cpd 105, (3S)-1-(1,3-Thiazol-2-ylcarbonyl)-N-[1-({3-[3-(trifluoromethyl)phenyl]-1H-indol-6-yl}carbonyl)azetidin-3-yl]pyrrolidin-3-amine]
[2]
  IC50: 18 nM
[3]
  Rat Brain 2AG % VehCntrl (%) @1 μM: 812%
[4]
  inhibition in vivo at 30 mg/kg: 37.2%

## O=C(c1ccc(-c2cccc(C(F)(F)F)c2)cc1)N1CC(N[C@H]2CCN(C(=O)c3cscn3)C2)C1 [Cpd 114, (3S)-1-(1,3-Thiazol-4-ylcarbonyl)-N-(1-{[3′-(trifluoromethyl)biphenyl-4-yl]carbonyl}azetidin-3-yl)pyrrolidin-3-amine]
[2]
  IC50: 16.7 nM
[3]
  Rat Brain 2AG % VehCntrl (%) @1 μM: 311%
[4]
  inhibition in vivo at 30 mg/kg: 25.1%

## O=C(c1ccc2c(ccn2-c2ccc(F)cc2)c1)N1CC(N[C@H]2CCN(C(=O)c3nccs3)C2)C1 [Cpd 159, (3S)-N-(1-{[1-(4-Fluorophenyl)-1H-indol-5-yl]carbonyl}azetidin-3-yl)-1-(1,3-thiazol-2-ylcarbonyl)pyrrolidin-3-amine]
[2]
  IC50: 6 nM
[3]
  Rat Brain 2AG % VehCntrl (%) @1 μM: 476%
[4]
  inhibition in vivo at 30 mg/kg: 56.5%

## Cn1cc(-c2cccc(C(F)(F)F)c2)c2ccc(C(=O)N3CC(N[C@H]4CCN(C(=O)c5nccs5)C4)C3)cc21 [Cpd 162, (3S)-N-[1-({1-Methyl-3-[3-(trifluoromethyl)phenyl]-1H-indol-6-yl}carbonyl)azetidin-3-yl]-1-(1,3-thiazol-2-ylcarbonyl)pyrrolidin-3-amine]
[2]
  IC50: 6.3 nM
[3]
  Rat Brain 2AG % VehCntrl (%) @1 μM: 911%
[4]
  inhibition in vivo at 30 mg/kg: 69.7%

## O=C(Nc1cccc(-c2ccccc2)c1)OC1CCCCC1 [URB602]
[5]
  antinociceptive effect: showed an antinociceptive effect
